Assays:
db/db mouse = test: In vivo evaluation on db/db mouse: body weight, glycemia, insulinemia, plasma lipids; conditions: 50 mpk per os, 28 days
Description: The effect of the compounds according to the invention is evaluated in vivo on the db/db mouse by measuring the body weight evolution, the glucose levels, the insulin levels, the plasma total cholesterol and triglyceride levels, and by analyzing the distribution of cholesterol in different plasma lipoprotein fractions, after 28 days of a per os treatment with compounds according to the invention.
Female db/db mice were kept on a 12 hour/12 hour light/dark cycle at a constant temperature of 20±3° C. After a one week acclimatization period, the mice were weighed and divided into groups of 8 animals selected so as to render uniform the distribution of their body weights and their plasma lipid rates, determined before the experiment. The tested compounds were suspended in carboxymethylcellulose (Sigma C4888) and administered intra-gastric tube feeding once a day for 28 days at the chosen dose. The animals had free access to food and water (standard diet). Taking of food and weight gain are recorded throughout the experiment. At the end of the experiment, the animals were anesthetized after a 4 hour fast, a blood sample was taken using (EDTA) anticoagulant, then the mice were weighed and euthanized. The plasma was separated by centrifugation at 3000 rotations/minute for 20 minutes. The samples were kept at +4° C. The hepatic tissue and skeletal muscle tissue samples were taken and frozen immediately in liquid nitrogen then conserved at −80° C. for later analysis.
Murine plasma glucose is measured out according to an enzyme-colorimetric method using a Glucose RTU kit (Biomérieux). Glucose is transformed into gluconic acid under the action of glucose oxidase; the reaction releases hydrogen peroxide. Hydrogen peroxide is measured according to the Trinder reaction which, under the action of a peroxidase and in the presence of phenol and amino-4-antipyrine, produces water and a colored product, quinoneimine. The color intensity, due to the quinoneimine, is proportional to the amount of glucose present in the sample.
Murine insulin is measured using ELISA method (using the INSKR020 kit from provider Crystal chem.). A microplate is coated with a mouse anti-insulin antibody. Then, the serum to be assayed for insulin is placed onto the plate. A guinea pig anti-insulin antibody is used to recognize the complex formed by the mouse insulin and the anti-insulin monoclonal antibody. Finally an anti-guinea pig antibody labeled with peroxidase is added and bind to the guinea pig anti-insulin antibody. The colorimetric reaction is performed by adding an OPD (ortho phenyl diamine) enzyme substrate. The intensity of the color is proportional to the amount of insulin present in the sample.
Plasma lipid concentrations (total cholesterol and triglycerides) are measured by enzymatic assays (bioMérieux-Lyon-France) according to the provider's recommendations.
The different lipid fractions (VLDL, LDL, HDL) in the plasma were separated using gel-filtration chromatography. Cholesterol concentrations were then measured for each fraction by enzymatic assays (bioMérieux-Lyon-France) according to the provider's recommendations.

[1] = system: PPARs target genes (PDK4, UCP2); test: Hepatic and skeletal muscle gene expression by quantitative RT-PCR in db/db mouse; type: in vivo; conditions: 50 mpk, 28 days
Description: The effectiveness of the compounds according to the invention is also evaluated by measuring, in the hepatic and muscular (skeletal) tissues, the expression of genes involved in lipid and/or glucid metabolism and in energy dissipation. Each level of gene expression is normalized regarding the expression level of the reference gene 36B4 in the hepatic tissue, or regarding the expression level of the reference gene 18S in the gastrocnemius skeletal muscle. The induction factor, i.e. the ratio between the relative signal (induced by the compound according to the invention) and the average of the relative values obtained with the control group, is then calculated. The higher the induction factor is, the more the greater the compound promotes gene expression. The final result is represented as the average of the induction values obtained with each experimental group. • FIG. 4-8: Expression of PDK4 in the hepatic tissue of the db/db mouse, after 28 days of treatment with compound 1 and compound 3, administered at 50 mpk • FIG. 4-9: Expression of UCP2 (uncoupling protein 2) in the skeletal muscle tissue of the db/db mouse, after 28 days of treatment with compound 1 and compound 3, administered at 50 mpk
Total RNA was extracted from liver fragments by using a NucleoSpin® 96 RNA kit (Macherey Nagel, Hoerdt, France) according to the manufacturer's instructions.
Total RNA was extracted from gastrocnemius skeletal muscle fragments by using a RNeasy® Fibrous Tissue kit (Qiagen) according to the manufacturer's instructions.
1 μg of total RNA (quantified by spectrophotometry) was then reverse-transcripted into complementary DNA by means of a 1 hour reaction at 37° C. in a total volume of 20 μl containing a 1× buffer (Sigma), 1.5 mM of DTT, 0.18 mM of dNTPs (Promega), 200 ng of pdN6 (Amersham), 30 U of RNase inhibitor (Sigma), and 1 μl of MMLV-RT (Sigma).
The PCR quantitative experiments were carried out using the MyiQ Single-Color Real-Time PCR Detection System (Biorad, Marnes-la-Coquette, France) and were performed using the iQ SYBR Green Supermix kit according to the provider's recommendations, in 96-well plates in 5 μl of a diluted reverse-transcription solution at a hybridization temperature of 55° C. The specific primer pairs of the genes being studied were used:
The amount of fluorescence emitted is directly proportional to the amount of complementary DNA present at the beginning of the reaction and amplified during the PCR. For each target studied, a range of solutions is performed with successive dilutions of mixtures of a few microliters of different reverse-transcription solutions. The relative levels of expression of each target are thus determined by using efficiency curves obtained with the points relative to the range of PCR solutions. […]

Cc1cc(CCC(=O)c2ccc(OC(F)(F)F)cc2)cc(C)c1OC(C)(C)C(=O)O [Compound 1, 2-[2,6-dimethyl-4-[3-[4-(trifluoromethyloxy)phenyl]-3-oxo-propyl]phenoxy]-2-methyl-propanoic acid]
HDL-cholesterol fraction (distribution of cholesterol in plasma lipoprotein fractions) (db/db mouse): significant increase
glycemia (plasma glucose) (db/db mouse): significantly reduced
insulinemia (plasma insulin) (db/db mouse): significantly reduced
body weight gain (db/db mouse; vs control): weight loss
plasma free fatty acids (db/db mouse; vs control): very significantly decreased
plasma triglycerides (db/db mouse; vs control): very significantly decreased
total plasma cholesterol (db/db mouse; vs control): significantly increased
expression of the gene coding for UCP2 in the skeletal muscle ([1]; gastrocnemius skeletal muscle): reduction
hepatic expression of the gene coding for PDK4 ([1]; hepatic tissue): significant increase
